Laboratory results: patent US20260015358A1, “BICYCLIC DERIVATIVES, COMPOSITIONS AND USES THEREOF” (Danatlas Pharmaceuticals Co., Ltd., priority 2023, published 2026)

What was measured:
[1] = target: T1, WRN [UniPro: Q14191 (WRN_HUMAN), N500-C946] (Homo sapiens (Human), UniProt Q14191); experiment: WRN ATPase assay (ADP-Glo); assay type: biochemical; settings: WRN enzymatic activity assay
[2] = target: T1, WRN [UniPro: Q14191 (WRN_HUMAN), N500-C946]; experiment: WRN unwinding assay (FORKF DNA, fluorescence); assay type: biochemical; settings: Table 14

T1 sequence (Q14191 500-946): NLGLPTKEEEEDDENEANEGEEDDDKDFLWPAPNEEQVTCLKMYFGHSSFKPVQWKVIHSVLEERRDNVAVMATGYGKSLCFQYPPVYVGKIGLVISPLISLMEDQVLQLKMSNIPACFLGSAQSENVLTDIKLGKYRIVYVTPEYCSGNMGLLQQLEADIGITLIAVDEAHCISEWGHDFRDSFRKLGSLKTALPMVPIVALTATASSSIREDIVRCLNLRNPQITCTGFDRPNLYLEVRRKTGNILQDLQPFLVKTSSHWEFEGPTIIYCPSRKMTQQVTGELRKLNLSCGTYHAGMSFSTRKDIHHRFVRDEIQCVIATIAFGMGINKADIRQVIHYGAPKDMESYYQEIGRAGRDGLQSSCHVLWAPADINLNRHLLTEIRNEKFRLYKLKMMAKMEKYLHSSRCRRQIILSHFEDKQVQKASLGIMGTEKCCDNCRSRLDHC

SMILES | IC50 [1] | IC50 [2]
CCc1c(N2CCN(C(=O)C(N)=O)CC2)c(=O)n2nc(C3=CCOCC3)nc2n1CC(=O)Nc1ccc(C(F)(F)F)cc1Cl [Example 89, 2-(6-(4-(2-Amino-2-oxoacetyl)piperazin-1-yl)-2-(3,6-dihydro-2H-pyran-4-yl)-5-ethyl-7-oxo-[1,2,4]triazolo[1,5-a]pyrimidin-4(7H)-yl)-N-(2-chloro-4-(trifluoromethyl)phenyl)acetamide] | < 100 nM | < 100 nM
CCc1c(N2CCC(NC(=O)CNC(=O)c3ccccc3)CC2)c(=O)n2nc(C3=CCOCC3)nc2n1CC(=O)Nc1ccc(C(F)(F)F)cc1Cl [Example 141, N-(2-((1-(4-(2-((2-Chloro-4-(trifluoromethyl)phenyl)amino)-2-oxoethyl)-2-(3,6-dihydro-2H-pyran-4-yl)-5-ethyl-7-oxo-4,7-dihydro-[1,2,4]triazolo[1,5-a]pyrimidin-6-yl)piperidin-4-yl)amino)-2-oxoethyl)benzamide] | > 1000 nM | > 1000 nM
CCc1c(N2CCN(C(=O)CNC(=O)Nc3ccccc3F)CC2)c(=O)n2nc(C3=CCOCC3)nc2n1CC(=O)Nc1ccc(C(F)(F)F)cc1Cl [Example 180, N-(2-Chloro-4-(trifluoromethyl)phenyl)-2-(2-(3,6-dihydro-2H-pyran-4-yl)-5-ethyl-6-(4-(((2-fluorophenyl)carbamoyl)glycyl)piperazin-1-yl)-7-oxo-[1,2,4]triazolo[1,5-a]pyrimidin-4(7H)-yl)acetamide] | < 100 nM | < 100 nM
CCc1c(N2CCN(C(=O)CNC(=O)c3cnc(C)s3)CC2)c(=O)n2nc(C3=CCOCC3)nc2n1CC(=O)Nc1ccc(C(F)(F)F)cc1Cl [Example 131, N-(2-(4-(4-(2-((2-Chloro-4-(trifluoromethyl)phenyl)amino)-2-oxoethyl)-2-(3,6-dihydro-2H-pyran-4-yl)-5-ethyl-7-oxo-4,7-dihydro-[1,2,4]triazolo[1,5-a]pyrimidin-6-yl)piperazin-1-yl)-2-oxoethyl)-2-methylthiazole-5-carboxamide] | 100 to 1000 nM | < 100 nM
CCc1c(N2CCN(C(=O)CNC(=O)c3ccc(C(F)(F)F)cc3)CC2)c(=O)n2nc(C3=CCOCC3)nc2n1CC(=O)Nc1ccc(C(F)(F)F)cc1Cl [Example 176, N-(2-(4-(4-(2-((2-Chloro-4-(trifluoromethyl)phenyl)amino)-2-oxoethyl)-2-(3,6-dihydro-2H-pyran-4-yl)-5-ethyl-7-oxo-4,7-dihydro-[1,2,4]triazolo[1,5-a]Pyrimidin-6-yl)piperazin-1-yl)-2-oxoethyl)-4-(trifluoromethyl)benzamide] | 100 to 1000 nM | 100 to 1000 nM
CCc1c(N2CCN(C(=O)CNC(=O)c3cc(F)cc(NC)c3)CC2)c(=O)n2nc(N3CCOCC3)nc2n1CC(=O)Nc1ccc(C(F)(F)F)cc1F [Example 253, N-(2-(4-(5-Ethyl-4-(2-((2-fluoro-4-(trifluoromethyl)phenyl)amino)-2-oxoethyl)-2-morpholino-7-oxo-4,7-dihydro-[1,2,4]triazolo[1,5-a]pyrimidin-6-yl)piperazin-1-yl)-2-oxoethyl)-3-fluoro-5-(methylamino)benzamide] | < 100 nM | < 100 nM
CCc1c(N2CCN(C(=O)CNC(=O)c3ccccc3F)CC2)c(=O)n2nc(C3=CCOCC3)nc2n1CC(=O)Nc1ccc(C(F)(F)F)cc1C [Example 147, N-(2-(4-(2-(3,6-Dihydro-2H-pyran-4-yl)-5-ethyl-4-(2-((2-methyl-4-(trifluoromethyl)phenyl)amino)-2-oxoethyl)-7-oxo-4,7-dihydro-[1,2,4]triazolo[1,5-a]pyrimidin-6-yl)piperazin-1-yl)-2-oxoethyl)-2-fluorobenzamide] | < 100 nM | < 100 nM
CCc1c(N2CCN(C(=O)CNC(=O)Nc3cc(F)cc(F)c3)CC2)c(=O)n2nc(C3=CCOCC3)nc2n1CC(=O)Nc1ccc(C(F)(F)F)cc1Cl [Example 179, N-(2-Chloro-4-(trifluoromethyl)phenyl)-2-(6-(4-(((3,5-difluorophenyl)carbamoyl)glycyl)piperazin-1-yl)-2-(3,6-dihydro-2H-pyran-4-yl)-5-ethyl-7-oxo-[1,2,4]triazolo[1,5-a]pyrimidin-4(7H)-yl)acetamide] | < 100 nM | < 100 nM

More lines, now with the values ahead:

IC50 [1] | IC50 [2] | SMILES
< 100 nM | < 100 nM | CCc1c(N2CCN(C(=O)c3cnc4sc(Br)cc4c3O)CC2)c(=O)n2nc(C3=CCOCC3)nc2n1CC(=O)Nc1ccc(C(F)(F)F)cc1F [Example 297, 2-(6-(4-(2-Bromo-4-hydroxythieno[2,3-b]pyridine-5-carbonyl)piperazin-1-yl)-2-(3,6-dihydro-2H-pyran-4-yl)-5-ethyl-7-oxo-[1,2,4]triazolo[1,5-a]pyrimidin-4(7H)-yl)-N-(2-fluoro-4-(trifluoromethyl)phenyl)acetamide]
< 100 nM | < 100 nM | CCc1c(N2CCN(C(=O)c3ncc4nc(Cl)sc4c3O)CC2)c(=O)n2nc(C3=CCOCC3)nc2n1CC(=O)Nc1ccc(C(F)(F)F)cc1F [Example 199, 2-(6-(4-(2-Chloro-7-hydroxythiazolo[4,5-c]pyridine-6-carbonyl)piperazin-1-yl)-2-(3,6-dihydro-2H-pyran-4-yl)-5-ethyl-7-oxo-[1,2,4]triazolo[1,5-a]pyrimidin-4(7H)-yl)-N-(2-fluoro-4-(trifluoromethyl)phenyl)acetamide]
< 100 nM | < 100 nM | CCc1c(N2CCN(C(=O)CNC(=O)c3ccc(F)c(NC)c3)CC2)c(=O)n2nc(N3CCOCC3)nc2n1CC(=O)Nc1ccc(C(F)(F)F)cc1F [Example 256, N-(2-(4-(5-Ethyl-4-(2-((2-fluoro-4-(trifluoromethyl)phenyl)amino)-2-oxoethyl)-2-morpholino-7-oxo-4,7-dihydro-[1,2,4]triazolo[1,5-a]pyrimidin-6-yl)piperazin-1-yl)-2-oxoethyl)-4-fluoro-3-(methylamino)benzamide]
< 100 nM | < 100 nM | CCc1c(N2CCN(C(=O)CNC(=O)c3cc(C)on3)CC2)c(=O)n2nc(C3=CCOCC3)nc2n1CC(=O)Nc1ccc(C(F)(F)F)cc1F [Example 218, N-(2-(4-(2-(3,6-Dihydro-2H-pyran-4-yl)-5-ethyl-4-(2-((2-fluoro-4-(trifluoromethyl)phenyl)amino)-2-oxoethyl)-7-oxo-4,7-dihydro-[1,2,4]triazolo[1,5-a]pyrimidin-6-yl)piperazin-1-yl)-2-oxoethyl)-5-methylisoxazole-3-carboxamide]
100 to 1000 nM | 100 to 1000 nM | CCc1c(N2CCN(C(=O)C(=O)NC)CC2)c(=O)n2nc(C3=CCOCC3)nc2n1CC(=O)Nc1ccc(C(F)(F)F)cc1Cl [Example 329, 2-(4-(4-(2-((2-Chloro-4-(trifluoromethyl)phenyl)amino)-2-oxoethyl)-2-(3,6-dihydro-2H-pyran-4-yl)-5-ethyl-7-oxo-4,7-dihydro-[1,2,4]triazolo[1,5-a]pyrimidin-6-yl)piperazin-1-yl)-N-methyl-2-oxoacetamide]
< 100 nM | < 100 nM | CCc1c(N2CCN(C(=O)CNC(=O)c3cccc(O)c3F)CC2)c(=O)n2nc(N3CCOCC3)nc2n1CC(=O)Nc1ccc(C(F)(F)F)cc1F [Example 252, N-(2-(4-(5-Ethyl-4-(2-((2-fluoro-4-(trifluoromethyl)phenyl)amino)-2-oxoethyl)-2-morpholino-7-oxo-4,7-dihydro-[1,2,4]triazolo[1,5-a]pyrimidin-6-yl)piperazin-1-yl)-2-oxoethyl)-2-fluoro-3-hydroxybenzamide]
